Experimental data: US9987276B2 (Celgene CAR LLC, priority 2008, dated 2018)
Entries after “also recorded” stand apart in the source; their conditions may differ.

Assays:
TEC kinase = TEC kinase (Homo sapiens (Human), UniProt P42680); assay: Mass spectrometry for TEC kinase (tryptic digest); assay type: binding; conditions: 3 hrs at 10× excess
Method: TEC kinase (45 pmols; Invitrogen) was incubated with (I-2) (450 pmols) for 3 hrs at 10× excess prior to tryptic digestion. Iodoacetamide was used as the alkylating agent after compound incubation. […] For tryptic digests a 5 ul aliquot (7.5 pmols) was diluted with 15 ul of 0.1% TFA prior to micro C18 Zip Tipping directly onto the MALDI target using alpha cyano-4-hydroxy cinnamic acid as the matrix (5 mg/ml in 0.1% TFA:Acetonitrile 50:50).
As depicted in FIG. 6, the expected peptide ([…]) to be modified was immediately evident after reaction with I-2 (MI mass of 359.17 Da) at MH+ of 1294.72. The peptide was also quite evident in the control sample as modified by Iodacetamide at MH+ of 992.56. […] There was no evidence of other modified peptides.
The fragmentation spectra of the 360.17 peak did show diagnostic fragments that were apparent in the PSD spectra of the modified peptide at 1294.72 (See FIG. 6).
To further verify the presence of the modified peptides, both the iodoacetamide labeled (992.56) and I-2 labeled (1294.72) were subjected to PSD (MS/MS) analysis. After a database search of the NCBI nr Homo sapien database using Mascot MS/MS Ion Search program the top match was the expected peptide in both cases.
For tryptic digests the instrument was set in Reflectron mode with a pulsed extraction setting of 2200. Calibration was done using the Laser Biolabs Pep Mix standard ([…], 1296.69, 1672.92, 2093.09, 2465.20). For CID/PSD analysis the peptide was selected using cursors to set ion gate timing and fragmentation occurred at a laser power about 20% higher and He was used as the collision gas for CID. Calibration for fragments was done using the P14R fragmentation calibration for the Curved field Reflectron.
TEC kinase (45 pmols; Invitrogen) was incubated with (I-4) (450 pmols) for 3 hrs at 10× excess prior to tryptic digestion. Iodoacetamide was used as the alkylating agent after compound incubation. […]

BMX = BMX (Homo sapiens (Human), UniProt P51813); assay: Omnia assay for potency assessment against active forms of BMX kinase; assay type: biochemical; conditions: [BMX]=2.5 nM, [ATP]=100 μM, [Y5-Sox]=7.5 μM; read-out: BMX Inhibition
Chain of BMX (P51813 whole entry): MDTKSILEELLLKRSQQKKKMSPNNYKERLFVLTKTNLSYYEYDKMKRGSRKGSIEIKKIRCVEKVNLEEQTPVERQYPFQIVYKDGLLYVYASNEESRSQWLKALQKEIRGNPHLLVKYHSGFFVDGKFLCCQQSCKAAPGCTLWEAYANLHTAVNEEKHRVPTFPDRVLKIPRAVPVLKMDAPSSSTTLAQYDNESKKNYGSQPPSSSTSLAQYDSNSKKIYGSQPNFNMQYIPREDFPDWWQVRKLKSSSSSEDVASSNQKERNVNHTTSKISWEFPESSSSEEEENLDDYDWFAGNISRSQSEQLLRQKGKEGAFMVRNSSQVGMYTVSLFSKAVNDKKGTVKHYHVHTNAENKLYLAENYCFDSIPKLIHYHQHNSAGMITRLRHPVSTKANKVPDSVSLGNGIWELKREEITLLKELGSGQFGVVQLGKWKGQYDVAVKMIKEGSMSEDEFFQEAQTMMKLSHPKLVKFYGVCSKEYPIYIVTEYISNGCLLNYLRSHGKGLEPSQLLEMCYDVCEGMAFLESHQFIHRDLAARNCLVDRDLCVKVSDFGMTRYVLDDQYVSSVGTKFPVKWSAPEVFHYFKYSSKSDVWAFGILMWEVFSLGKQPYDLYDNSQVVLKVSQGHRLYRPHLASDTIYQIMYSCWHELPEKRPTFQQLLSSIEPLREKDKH
Method: Briefly, 10× stocks of EGFR-WT (PV3872) from Invitrogen and EGFR-T790M/L858R (40350) from BPS Bioscience, San Diego, Calif., 1.13×ATP (AS001A) and appropriate Tyr-Sox conjugated peptide substrates (KCZ1001) were prepared in 1× kinase reaction buffer consisting of 20 mM Tris, pH 7.5, 5 mM MgCl2, 1 mM EGTA, 5 mM β-glycerophosphate, 5% glycerol (10× stock, KB002A) and 0.2 mM DTT (DS001A).
This example describes continuous-read kinase assays to measure inherent potency of compound against active forms of BMX enzymes as described in Example 251 above except that the modified BMX-optimized reagent conditions are:
[BMX]=2.5 nM, [ATP]=100 μM, [Y5-Sox]=7.5 μM (ATP KMapp=107 μM).

EGFR T790M = EGFR T790M (Homo sapiens (Human), UniProt P00533, T790M); assay: EGFR mutant T790M inhibition assay; assay type: biochemical
Chain of EGFR T790M (P00533 25-1210 T790M): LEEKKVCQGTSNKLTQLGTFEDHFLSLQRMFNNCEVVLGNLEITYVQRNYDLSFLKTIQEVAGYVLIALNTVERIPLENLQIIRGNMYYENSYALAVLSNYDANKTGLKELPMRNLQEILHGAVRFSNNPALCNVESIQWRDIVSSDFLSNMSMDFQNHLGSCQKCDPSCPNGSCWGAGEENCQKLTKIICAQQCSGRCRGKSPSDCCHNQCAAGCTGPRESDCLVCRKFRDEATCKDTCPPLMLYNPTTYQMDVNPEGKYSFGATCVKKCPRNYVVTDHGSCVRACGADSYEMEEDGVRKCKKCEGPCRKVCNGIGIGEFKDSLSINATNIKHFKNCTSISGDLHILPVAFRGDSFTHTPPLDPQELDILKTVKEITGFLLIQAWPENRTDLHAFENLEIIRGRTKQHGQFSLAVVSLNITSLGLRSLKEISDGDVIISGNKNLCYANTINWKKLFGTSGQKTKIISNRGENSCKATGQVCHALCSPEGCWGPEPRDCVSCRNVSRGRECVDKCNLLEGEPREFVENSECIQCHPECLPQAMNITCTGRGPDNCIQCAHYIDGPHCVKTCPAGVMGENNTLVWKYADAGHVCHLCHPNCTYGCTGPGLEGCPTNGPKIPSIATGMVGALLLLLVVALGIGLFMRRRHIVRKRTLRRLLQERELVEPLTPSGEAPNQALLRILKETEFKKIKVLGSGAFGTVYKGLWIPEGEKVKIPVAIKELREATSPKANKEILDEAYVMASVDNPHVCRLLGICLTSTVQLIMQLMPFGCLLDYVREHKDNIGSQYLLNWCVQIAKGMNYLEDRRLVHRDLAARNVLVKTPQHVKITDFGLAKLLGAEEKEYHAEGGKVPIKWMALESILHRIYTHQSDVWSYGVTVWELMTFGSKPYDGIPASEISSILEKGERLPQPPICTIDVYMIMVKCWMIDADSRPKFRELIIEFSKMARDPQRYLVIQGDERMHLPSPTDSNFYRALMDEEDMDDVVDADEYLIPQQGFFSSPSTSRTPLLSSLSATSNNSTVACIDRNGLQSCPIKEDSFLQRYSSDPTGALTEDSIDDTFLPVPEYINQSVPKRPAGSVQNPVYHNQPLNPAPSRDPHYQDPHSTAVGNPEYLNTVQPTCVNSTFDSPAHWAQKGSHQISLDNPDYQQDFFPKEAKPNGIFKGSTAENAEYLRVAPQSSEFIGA
Method: The Omnia Assay Protocol for potency assessment against EGFR is performed as described in Example 251 above except that the EGFR-WT- and EGFR T790M/L858R-modified optimized reagent conditions are: […]

[1] = test system: TI-2 independent B cell activation; assay: In vivo thymus-independent (TI-2) B cell activation; conditions: C57/B6 mice, 100 mg/kg daily day 0 through 5, TNP-Ficoll, serum day 6
[2] = Collagen antibody induced arthritis model; assay type: in vivo; conditions: Dose 30 mg/kg
Method: On day 0 baseline footpad measurements were made and animals were distributed to the experimental groups in such a way as to generate groups with no significant differences between the groups. Each animal was then inoculated intravenously with 2 mg Arthritomab monoclonal antibody cocktail. Treatment with test agents began at this time. On day 6, each animal was injected intraperitoneally with 50 μg LPS in 200 μl of sterile PBS. Footpad measurements and clinical scoring were conducted on days 6, 7, 8, 9, 10, 11, 12, 14, 18, and 21.

BTK = BTK (Homo sapiens (Human), UniProt Q06187); assay: BTK occupancy in Ramos cells with I-7 and probe I-215 using streptavidin beads; assay type: cell-based; conditions: 1 hour, higher concentrations of I-7 (0.1, 0.05 μM)
Chain of BTK (Q06187 whole entry): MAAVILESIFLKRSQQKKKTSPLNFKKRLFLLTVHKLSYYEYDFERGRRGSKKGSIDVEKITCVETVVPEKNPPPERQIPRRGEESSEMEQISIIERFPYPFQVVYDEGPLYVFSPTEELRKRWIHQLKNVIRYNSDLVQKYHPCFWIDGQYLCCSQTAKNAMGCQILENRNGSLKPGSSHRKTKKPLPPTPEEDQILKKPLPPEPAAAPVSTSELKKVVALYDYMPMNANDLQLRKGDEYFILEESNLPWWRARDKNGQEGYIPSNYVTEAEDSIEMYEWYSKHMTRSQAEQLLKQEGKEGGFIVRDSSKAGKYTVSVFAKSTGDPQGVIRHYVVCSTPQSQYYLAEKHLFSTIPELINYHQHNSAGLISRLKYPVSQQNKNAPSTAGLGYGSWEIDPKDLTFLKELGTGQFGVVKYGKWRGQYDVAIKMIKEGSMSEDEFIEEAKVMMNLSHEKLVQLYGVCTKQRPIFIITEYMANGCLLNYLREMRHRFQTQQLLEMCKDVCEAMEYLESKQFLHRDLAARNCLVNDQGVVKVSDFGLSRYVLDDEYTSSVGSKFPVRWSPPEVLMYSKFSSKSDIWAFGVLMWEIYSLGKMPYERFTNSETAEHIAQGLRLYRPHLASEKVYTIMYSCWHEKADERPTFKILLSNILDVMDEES
Method: Ramos cells were incubated with 0.1, 0.05, 0.01, or 0.001 μM I-7 in serum free media for 1 hour at 37° C. The cells were pelleted by centrifugation and lysed in Cell Extraction buffer (Invitrogen) for 10 minutes on ice, centrifuged (10 minutes at 14,000 rpm) and the supernatant was collected. Cell lysates were incubated with 1 μM I-215 for 1 hour at room temperature, then incubated with streptavidin-coupled agarose beads (ThermoFisher) overnight at 4° C. The beads were washed three times with lysis buffer and the bound proteins were boiled off the beads at 95° C. for 5 minutes in 4×LDS Sample Buffer. The amount of BTK associated with the probe I-215 was assessed by BTK western blot. All values were normalized to the DMSO-treated sample which is set to 100%.

Chain of TEC kinase (P42680 whole entry): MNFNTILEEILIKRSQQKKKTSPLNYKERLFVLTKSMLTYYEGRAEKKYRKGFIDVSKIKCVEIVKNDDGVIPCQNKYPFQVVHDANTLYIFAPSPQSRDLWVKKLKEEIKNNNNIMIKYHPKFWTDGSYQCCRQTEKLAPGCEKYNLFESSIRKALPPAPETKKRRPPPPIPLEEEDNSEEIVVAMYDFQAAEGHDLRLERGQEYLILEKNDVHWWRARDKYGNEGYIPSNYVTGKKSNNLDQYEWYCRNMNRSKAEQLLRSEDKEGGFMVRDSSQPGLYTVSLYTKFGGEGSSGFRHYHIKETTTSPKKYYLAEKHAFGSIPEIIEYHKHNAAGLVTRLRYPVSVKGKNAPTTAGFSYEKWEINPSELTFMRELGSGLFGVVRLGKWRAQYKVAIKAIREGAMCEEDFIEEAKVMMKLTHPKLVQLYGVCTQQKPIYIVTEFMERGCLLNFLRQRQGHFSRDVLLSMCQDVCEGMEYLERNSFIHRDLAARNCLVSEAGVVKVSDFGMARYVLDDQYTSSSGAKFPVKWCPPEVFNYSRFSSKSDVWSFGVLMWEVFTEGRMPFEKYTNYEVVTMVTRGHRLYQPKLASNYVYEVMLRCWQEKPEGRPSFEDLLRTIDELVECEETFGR

IC50 (BMX) [nM] | IC50 (EGFR T790M) [nM] | BTK occupancy (BTK available to probe I-215) (BTK) | Compound | covalent modification of TEC kinase (Cys449, peptide GCLLNFLR) by mass spectrometry (TEC kinase) | % Inhibition IgG3 (1:100) [1] [%] | % Inhibition IgM (1:1600) [1] [%] | % inhibition foot pad swelling [2] [%]
< 10 | < 10 |  | Cc1cccc(Nc2nc(Nc3cccc(NC(=O)/C=C/CN(C)C)c3)ncc2F)c1 [Compound I-4, (E)-4-(dimethylamino)-N-(3-(5-fluoro-4-(m-tolylamino)pyrimidin-2-ylamino)phenyl)but-2-enamide] | reaction was complete; also recorded: covalent modification |  |  | 
< 10 |  | fully occupied | C=CC(=O)Nc1cccc(Nc2nc(Nc3ccccc3)ncc2C)c1 [Compound I-7, N-(3-(5-methyl-2-(phenylamino)pyrimidin-4-ylamino)phenyl) acrylamide] | reaction was complete; also recorded: covalent modification | 57 | 48 | 83
